Measured values: patent publication US20180050040A1, “USE OF 4-(4-FLUORO-2-METHOXYPHENYL)-N--1,3,5-TRIAZIN-2-AMINE FOR TREATING LYMPHOMAS” (Bayer Pharma Aktiengesellschaft, priority 2015, published 2018)
Where “and” joins values, the source holds several entries; their conditions need not be identical. Equal entries are not always repeated.

Columns and labels:
ATL tumor cells (S-YU) [1] = assay: ATL cell-bearing NOG mice treated for 18 days, efficacy evaluated 25 days after inoculation; format: in vivo; settings: 12.5 mg/kg p.o. once daily 18 days
Protocol: (§1) NOD/Shi-scid, IL-2Rγ^null (NOG) mice were purchased from the Central Institute for Experimental Animals (Kanagawa, Japan) and used at between 6-8 weeks of age.
A leukemic cell clone from a patient with ATL, which could be serially transplanted into SCID mice and was designated S-YU as reported previously (Eur J Haematol. 2014; 92(3):219-228), was injected intraperitoneally (i.p.) into NOG mice. Three to four weeks after i.p. injection, NOG mice developed intraperitoneal masses within the mesentery. Cells from these intraperitoneal masses were suspended in RPMI-1640 and inoculated i.p. into healthy NOG mice, which then presented with disease features identical to those of the original mice. ATL tumor cells (S-YU) from the intraperitoneal masses were suspended in RPMI-1640, and 1.0×10^7 cells were inoculated i.p. into each of 16 naive NOG mice. The animals were randomly divided into two groups of eight each for treatment with Compound A′ or vehicle, seven days after ATL cell inoculations. Compound A′ was formulated in 40% PEG400 in water at a final concentration of 2.5 mg/mL. Mice were treated by oral application of 12.5 mg/kg Compound A′ (0.25 mg/100 μL per mouse) or vehicle (100 μL), once daily for 18 days (7-24 days after ATL cell inoculations). Therapeutic efficacy was then evaluated 25 days after ATL cell inoculations.
The concentration of human soluble IL-2 receptor (sIL2R) in mouse serum was measured by enzyme-linked immunosorbent assay (ELISA) using a human sIL2R immunoassay kit (R&D Systems, Minneapolis, Minn.) according to the manufacturer's instructions. All expressed values were averages of triplicate experiments.
(§2) Differences between groups regarding the percentage of ATL cells in mouse liver and bone marrow cell suspensions, and human sIL2R concentrations in mouse sera, were examined using a Mann-Whitney U test. Mouse survival analyses were done by Kaplan-Meier method, and survival curves were compared using the log-rank test. All analyses were performed using SPSS Statistics 17.0 software (SPSS Inc., Chicago, Ill.). In this study, P<0.05 was considered significant.

ATL tumor cells (S-YU) [2] = assay: ATL cell-bearing NOG mice treated for 21 days, survival times; format: in vivo
Protocol: as §1
ATL cells from intraperitoneal masses suspended in RPMI-1640 were also inoculated i.p. into another 14 naive NOG mice at 1.0×10^7 cells per mouse. These animals were randomly divided into two groups of seven each for treatment with Compound A′ or vehicle. Compound A′ was formulated in the same manner, and mice were treated by oral application of 12.5 mg/kg Compound A′ or vehicle, once daily for 21 days (7-27 days after ATL cell inoculations). The therapeutic efficacy of Compound A′ was evaluated according to survival times.
as §2

[3] = system: DLBCL OCI-LY-7 xenografts; assay: In vivo efficacy and tolerability in DLBCL OCI-LY-7 tumour model subcutaneously implanted in NOG mice; settings: 25 mg/kg/day p.o.
Protocol: The aim of the present experiments was to assess the in vivo efficacy and tolerability of Compound A′ in monotherapy in the DLBCL OCI-LY-7 tumour model subcutaneously implanted in NOG mice.
In vivo efficacy was determined in female NOG mice bearing subcutaneous DLBCL OCI-LY-7 xenografts. Compound A′ was assessed at one dose level in monotherapy. Anti-tumour activity and tolerability of the treated group was assessed using the vehicle control group as a reference.
Mouse strain, sex: NOG, female Animals supplied by: Taconic, Denmark Approximate age at implantation: 5-7 weeks
DLBCL tumour fragments, derived from the OCI-LY-7 cell line, were obtained from xenografts in serial passage in nude mice and placed in PBS containing 10% penicillin/streptomycin. Tumour fragments (one fragment per animal; 3-4 mm edge length) were then subcutaneously implanted in the flank of NOG recipient mice under isofluorane anaesthesia.
At randomisation, the volume of growing tumours was initially determined. […] The result of the randomisation was documented and maintained with the experimental data. Animals not randomised were euthanised. The day of randomisation is designated as day 0 of an experiment.
Vehicle: 80% (m/V) PEC400 in water for injection Compound A′: preparation of a dosing solution (2.5 mg/ml) once weekly by diluting the Compound A′ powder at 0.25% (w/v) in vehicle; storage of the dosing solution at 4° C.; dosing volume 10 ml/kg
Mortality checks were conducted daily during routine monitoring.
Mice were weighed twice a week. Relative body weights of individual mice in % were calculated by dividing the individual body weight on day X (BWX) by the individual body weight on day 0 (BW0) multiplied by 100 according to the formula: […]
Group median relative body weights were calculated as well, considering only the weights of mice that were alive on the day in question.
The tumour volumes were determined by two-dimensional measurement with a caliper on the day of randomisation (day 0) and then twice weekly (i.e. on the same days on which mice were weighed). Tumour volumes were calculated according to the formulas:
Tumour volume=(a×b^2)×0.5
Relative volumes of individual tumours (RTVs) for Day x were calculated by dividing the absolute individual tumour volume on Day x (Tx) by the absolute individual tumour volume of the same tumour on Day 0 (T0) multiplied by 100%:
Anti-tumour activity was evaluated as maximum tumour volume inhibition versus the vehicle control group.
Tumour inhibition for a particular day (T/C in %) was calculated from the ratio of the median RTV values of test versus control groups multiplied by 100.
The minimum (or optimum) T/C % value recorded for a particular test group during an experiment represents the maximum anti-tumour activity for the respective treatment. T/C values were calculated if at least 50% of the randomised animals in a group were alive on the day in question.
Group optimum T/C values (in %) were used for activity rating as follows: […]

MT-1 = assay: Cell proliferation assay (CellTiter Glo); format: cell-based; settings: MT-1, ATL; 72 h
Protocol: (§3) The proliferation of all lymphoma cell lines, other than S-YU, in the presence of different concentrations of Compound A′ for 72 h was assessed using CellTiter Glo kits (Promega Corporation, Madison, Wis.). Proliferation of S-YU in the presence of recombinant human interleukin-2 (IL-2) at a final concentration of 100 IU/mL, with different concentrations of Compound A′ for 24 h, was assessed in the same manner. All expressed values were averages of triplicate experiments, and IC50 was calculated using GraphPad Prism 5 (GraphPad Software, San Diego, Calif.) according to the manufacturer's instructions or the MTS software.

OCI-LY-3 = assay: Cell proliferation assay (CellTiter Glo); format: cell-based; settings: Homo sapiens, OCI-Ly3; OCI-LY-3, DLBCL, ABC subtype; 72 h
Protocol: as §3

MT-2 = assay: Cell proliferation assay (CellTiter Glo); format: cell-based; settings: Homo sapiens, MT2; MT-2, HTLV-1-immortalized cell line; 72 h
Protocol: as §3

SU-DHL-6 = assay: Cell proliferation assay (CellTiter Glo); format: cell-based; settings: Homo sapiens; SU-DHL-6, DLBCL, GCB subtype; 72 h
Protocol: as §3

SU-DHL-10 = assay: Cell proliferation assay (CellTiter Glo); format: cell-based; settings: Homo sapiens, SU-DHL10; SU-DHL-10, DLBCL, GCB subtype; 72 h
Protocol: as §3

KM-H2 = assay: Cell proliferation assay (CellTiter Glo); format: cell-based; settings: Homo sapiens; KM-H2, Hodgkin lymphoma; 72 h
Protocol: as §3

HBL1 = assay: Cell proliferation assay (CellTiter Glo); format: cell-based; settings: HBL1, DLBCL, ABC subtype; 72 h
Protocol: as §3

SU-DHL-4 = assay: Cell proliferation assay (CellTiter Glo); format: cell-based; settings: Homo sapiens; SU-DHL-4, DLBCL, GCB subtype; 72 h
Protocol: as §3

MJ = assay: Cell proliferation assay (CellTiter Glo); format: cell-based; settings: ATL, 72 h
Protocol: as §3

HT = assay: Cell proliferation assay (CellTiter Glo); format: cell-based; settings: Homo sapiens, DLBCL, GCB subtype, 72 h
Protocol: as §3

TL-SU = assay: Cell proliferation assay (CellTiter Glo); format: cell-based; settings: HTLV-1-immortalized cell line, 72 h
Protocol: as §3

OCI-LY-19 = assay: Cell proliferation assay (CellTiter Glo); format: cell-based; settings: Homo sapiens, OCI-LY19; OCI-LY-19, DLBCL, GCB subtype; 72 h
Protocol: as §3

ATN-1 = assay: Cell proliferation assay (CellTiter Glo); format: cell-based; settings: Homo sapiens; ATN-1, ATL; 72 h
Protocol: as §3

Karpas422 = assay: Cell proliferation assay (CellTiter Glo); format: cell-based; settings: Homo sapiens, KARPAS-422; Karpas422, Follicular lymphoma; 72 h
Protocol: as §3

DB = assay: Cell proliferation assay (CellTiter Glo); format: cell-based; settings: Homo sapiens, DLBCL, GCB subtype, 72 h
Protocol: as §3

MT-4 = assay: Cell proliferation assay (CellTiter Glo); format: cell-based; settings: Homo sapiens, MT4; MT-4, HTLV-1-immortalized cell line; 72 h
Protocol: as §3

SU-DHL-8 = assay: Cell proliferation assay (CellTiter Glo); format: cell-based; settings: Homo sapiens; SU-DHL-8, DLBCL, GCB subtype; 72 h
Protocol: as §3

Jeko-1 = assay: Cell proliferation assay (CellTiter Glo); format: cell-based; settings: Homo sapiens; Jeko-1, Mantle cell lymphoma; 72 h
Protocol: as §3

Ramos = assay: Cell proliferation assay (CellTiter Glo); format: cell-based; settings: Homo sapiens, Burkitt's lymphoma, 72 h
Protocol: as §3

TL-Om1 = assay: Cell proliferation assay (CellTiter Glo); format: cell-based; settings: TL-Om1, ATL; 72 h
Protocol: as §3

S-YU = assay: Cell proliferation assay (CellTiter Glo), S-YU with IL-2; format: cell-based; settings: ATL, after 24 hours of incubation, IL-2 100 IU/mL
Protocol: as §3

[4] = individual treated NOG mice 1-8, 25 days after inoculation, 12.5 mg/kg
[5] = OCI-LY-7 xenograft-bearing NOG mice, days 0-27

COc1cc(F)ccc1-c1ncnc(Nc2cccc(CS(C)(=N)=O)c2)n1 (single isomer, unassigned; (+)) [Compound A′, (+)-4-(4-Fluoro-2-methoxyphenyl)-N-{3-[(S-methylsulfonimidoyl)methyl]phenyl}-1,3,5-triazin-2-amine]
percentage of ATL cells (human CD45-positive, CD4-positive, CD8-negative) in bone marrow cell suspension (ATL tumor cells (S-YU) [1]; [4]): 0.01% (4×) and 0.02% (2×) and 0.72% and < 0.01%
percentage of ATL cells (human CD45-positive, CD4-positive, CD8-negative) in liver cell suspension (ATL tumor cells (S-YU) [1]; [4]): 0.9% and 1.6% and 1.0% and 0.4% and 2.2% and 1.1% and 0.6% and 0.5%
concentration of human sIL2R in serum, mean (ATL tumor cells (S-YU) [1]; treated NOG mice 1-8, ELISA): 84500 pg/mL
concentration of human sIL2R in serum, median (ATL tumor cells (S-YU) [1]; treated NOG mice 1-8, ELISA): 84900 pg/mL
concentration of human sIL2R in serum, range (ATL tumor cells (S-YU) [1]; treated NOG mice 1-8, ELISA): 69.0-97.4 ×10^3 pg/mL
Toxicity attributable to compound (ATL tumor cells (S-YU) [2]; ATL cell-bearing NOG mice, 12.5 mg/kg p.o. once daily, during the study period): not observed
survival of ATL cell-bearing mice (ATL tumor cells (S-YU) [2]; thirty-eight days after ATL cell inoculation, 12.5 mg/kg p.o. once daily 21 days, n=7): all alive
OCI-LY-7 tumour growth compared to vehicle control group ([3]; Mann-Whitney-Wilcoxon U-test): significantly reduced
Activity Rating ([3]; OCI-LY-7 in NOG mice, days 0-27): ++++ (Complete remission T/C < 5%)
Min. T/C [%] (Day) ([3]; OCI-LY-7 in NOG mice, days 0-27, minimum on day 19, 25 mg/kg/day): 2.6% and 2.6 (19) %
Survival rate [3, 5]: 80%
median BWL (body weight loss) [3, 5]: 17.9%
tolerability profile ([3]; lymphoma xenograft bearing mice): acceptable tolerability profile
IC50 (MT-1): 1200 nM
IC50 (OCI-LY-3): 340 nM
IC50 (MT-2): 520 nM
IC50 (SU-DHL-6): 360 nM
IC50 (SU-DHL-10): 600 nM
IC50 (KM-H2): 2200 nM
IC50 (HBL1): 540 nM
IC50 (SU-DHL-4): 170 nM
IC50 (MJ): 540 nM
IC50 (HT): 710 nM
IC50 (TL-SU): 2130 nM
IC50 (OCI-LY-19): 480 nM
IC50 (ATN-1): 440 nM
IC50 (Karpas422): 660 nM
IC50 (DB): 570 nM
IC50 (MT-4): 1410 nM
IC50 (SU-DHL-8): 610 nM
IC50 (Jeko-1): 740 nM
IC50 (Ramos): 1100 nM
IC50 (TL-Om1): 790 nM
IC50 (S-YU): 2960 nM
